From patent publication US12275731B2, “Azaindole inhibitors of wild-type and mutant forms of LRRK2” (DANA-FARBER CANCER INSTITUTE, INC., priority 2018, dated 2025) come the findings set out here.

What all share (experiment): KinomeScan profiling
What all share (format): binding

One experiment has as its target T1, SRMS (Homo sapiens, UniProt Q9H3Y6).
T1 construct: purchased KinomeScan® (panel service)
Conditions: read-out: % control. In outline: (§1)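 1 μM cpd in DMSO; 468-kinase panel; readout RLU. % ctrl = (cpd − pos ctrl)/(neg ctrl − pos ctrl) ×100. Pos ctrl = 0%, DMSO = 100%. Hit cut-off <35%.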

The target in a further experiment is T2, NLK (Homo sapiens, UniProt Q9UBE8).
T2 sequence (Q9UBE8 1-527): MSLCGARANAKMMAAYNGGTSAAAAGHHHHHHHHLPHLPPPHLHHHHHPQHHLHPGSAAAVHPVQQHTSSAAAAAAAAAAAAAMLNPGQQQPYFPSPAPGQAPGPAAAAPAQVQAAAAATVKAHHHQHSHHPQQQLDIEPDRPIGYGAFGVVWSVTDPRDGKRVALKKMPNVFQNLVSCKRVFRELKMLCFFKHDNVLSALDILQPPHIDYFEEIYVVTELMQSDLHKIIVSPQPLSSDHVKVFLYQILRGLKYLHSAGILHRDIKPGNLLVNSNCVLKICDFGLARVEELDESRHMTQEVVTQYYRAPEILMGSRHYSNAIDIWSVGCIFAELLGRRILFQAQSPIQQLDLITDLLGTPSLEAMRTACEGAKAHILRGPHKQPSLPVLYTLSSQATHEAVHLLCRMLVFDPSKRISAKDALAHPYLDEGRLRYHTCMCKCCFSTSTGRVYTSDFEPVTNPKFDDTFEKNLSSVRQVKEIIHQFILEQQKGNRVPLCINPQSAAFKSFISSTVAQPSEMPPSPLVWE
Conditions: read-out: % control. In outline: as §1

The target in a further experiment is MST1R (Homo sapiens, UniProt Q04912). Conditions: read-out: % control. In outline: as §1
In a further experiment the target is T3, SRC (Homo sapiens, UniProt P12931).
T3 construct: purchased KinomeScan® (panel service)
Conditions: read-out: % control. An outline of the steps: as §1

A further experiment concerns the target T4, NEK1 (Homo sapiens, UniProt Q96PY6).
T4 sequence (Q96PY6 1-1258): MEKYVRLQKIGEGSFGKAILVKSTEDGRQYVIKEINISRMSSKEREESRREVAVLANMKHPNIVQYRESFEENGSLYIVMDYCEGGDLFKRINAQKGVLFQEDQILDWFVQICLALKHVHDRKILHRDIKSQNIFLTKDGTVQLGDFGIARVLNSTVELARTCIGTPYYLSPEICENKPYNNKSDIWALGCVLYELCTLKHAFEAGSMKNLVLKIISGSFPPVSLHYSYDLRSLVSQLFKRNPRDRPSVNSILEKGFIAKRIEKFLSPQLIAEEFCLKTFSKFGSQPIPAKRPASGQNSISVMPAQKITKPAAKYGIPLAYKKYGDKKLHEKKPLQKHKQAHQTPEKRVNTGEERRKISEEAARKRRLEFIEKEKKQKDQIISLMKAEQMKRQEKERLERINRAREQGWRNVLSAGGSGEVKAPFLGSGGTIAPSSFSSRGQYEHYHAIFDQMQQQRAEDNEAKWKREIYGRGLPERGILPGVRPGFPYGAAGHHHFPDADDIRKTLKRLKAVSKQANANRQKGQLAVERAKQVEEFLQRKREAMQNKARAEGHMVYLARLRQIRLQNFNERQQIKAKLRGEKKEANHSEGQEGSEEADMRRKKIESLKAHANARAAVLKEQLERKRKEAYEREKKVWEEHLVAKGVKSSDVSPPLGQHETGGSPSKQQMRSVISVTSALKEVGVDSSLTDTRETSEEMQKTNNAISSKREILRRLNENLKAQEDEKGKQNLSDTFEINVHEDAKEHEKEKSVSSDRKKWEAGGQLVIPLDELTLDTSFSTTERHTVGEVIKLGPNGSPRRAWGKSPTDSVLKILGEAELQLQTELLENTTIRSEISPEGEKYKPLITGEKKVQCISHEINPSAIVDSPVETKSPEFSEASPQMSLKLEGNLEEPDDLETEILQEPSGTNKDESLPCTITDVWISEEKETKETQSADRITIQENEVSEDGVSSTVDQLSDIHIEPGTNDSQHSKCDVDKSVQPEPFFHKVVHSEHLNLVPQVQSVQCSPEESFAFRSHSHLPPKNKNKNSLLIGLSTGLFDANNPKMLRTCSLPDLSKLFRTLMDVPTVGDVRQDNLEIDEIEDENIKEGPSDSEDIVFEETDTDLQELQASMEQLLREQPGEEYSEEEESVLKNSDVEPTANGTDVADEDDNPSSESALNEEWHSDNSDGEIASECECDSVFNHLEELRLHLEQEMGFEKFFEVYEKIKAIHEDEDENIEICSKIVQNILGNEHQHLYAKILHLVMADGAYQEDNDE
Particulars: NEK1, 1 μM; read-out: % control. An outline of the steps: as §1

The target of the next experiment is T5, DCAMKL1 (Homo sapiens, UniProt O15075).
T5 sequence (O15075 1-740): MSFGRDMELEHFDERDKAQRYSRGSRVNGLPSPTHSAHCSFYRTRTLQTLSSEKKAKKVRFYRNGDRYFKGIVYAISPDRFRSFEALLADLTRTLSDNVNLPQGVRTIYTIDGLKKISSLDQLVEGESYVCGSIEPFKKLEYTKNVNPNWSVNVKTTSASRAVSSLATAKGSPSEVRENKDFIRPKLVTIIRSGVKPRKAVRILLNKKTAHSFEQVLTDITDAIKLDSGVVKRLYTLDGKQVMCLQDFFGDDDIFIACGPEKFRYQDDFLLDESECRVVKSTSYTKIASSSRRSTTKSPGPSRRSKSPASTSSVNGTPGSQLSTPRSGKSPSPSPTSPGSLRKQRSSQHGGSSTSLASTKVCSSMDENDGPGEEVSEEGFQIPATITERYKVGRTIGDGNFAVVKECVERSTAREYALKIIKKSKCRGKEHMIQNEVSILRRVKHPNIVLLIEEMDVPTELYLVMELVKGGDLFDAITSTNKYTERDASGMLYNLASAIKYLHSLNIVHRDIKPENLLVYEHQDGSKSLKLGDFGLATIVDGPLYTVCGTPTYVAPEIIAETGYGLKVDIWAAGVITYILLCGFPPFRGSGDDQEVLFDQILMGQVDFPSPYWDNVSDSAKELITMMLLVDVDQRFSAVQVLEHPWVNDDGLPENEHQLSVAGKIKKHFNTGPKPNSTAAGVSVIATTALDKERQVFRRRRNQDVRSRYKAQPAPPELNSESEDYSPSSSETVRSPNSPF
Particulars: DCAMKL1, 1 μM; read-out: % control. An outline of the steps:
as §1

T3 sequence (P12931 whole entry): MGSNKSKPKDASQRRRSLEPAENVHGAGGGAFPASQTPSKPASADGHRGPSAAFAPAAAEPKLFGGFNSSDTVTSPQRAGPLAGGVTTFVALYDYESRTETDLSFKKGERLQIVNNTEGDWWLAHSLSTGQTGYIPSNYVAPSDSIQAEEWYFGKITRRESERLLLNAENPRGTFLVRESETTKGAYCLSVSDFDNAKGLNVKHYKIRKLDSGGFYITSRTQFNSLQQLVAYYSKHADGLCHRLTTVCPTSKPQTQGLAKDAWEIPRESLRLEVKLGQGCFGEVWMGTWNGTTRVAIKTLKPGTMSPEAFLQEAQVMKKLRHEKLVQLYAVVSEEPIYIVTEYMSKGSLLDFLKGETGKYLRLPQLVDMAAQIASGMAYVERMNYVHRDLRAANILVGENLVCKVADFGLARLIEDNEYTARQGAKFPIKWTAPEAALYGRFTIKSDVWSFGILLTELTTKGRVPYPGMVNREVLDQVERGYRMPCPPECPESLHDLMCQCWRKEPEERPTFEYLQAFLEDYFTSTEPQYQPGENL
Sequence of MST1R (Q04912 25-1400): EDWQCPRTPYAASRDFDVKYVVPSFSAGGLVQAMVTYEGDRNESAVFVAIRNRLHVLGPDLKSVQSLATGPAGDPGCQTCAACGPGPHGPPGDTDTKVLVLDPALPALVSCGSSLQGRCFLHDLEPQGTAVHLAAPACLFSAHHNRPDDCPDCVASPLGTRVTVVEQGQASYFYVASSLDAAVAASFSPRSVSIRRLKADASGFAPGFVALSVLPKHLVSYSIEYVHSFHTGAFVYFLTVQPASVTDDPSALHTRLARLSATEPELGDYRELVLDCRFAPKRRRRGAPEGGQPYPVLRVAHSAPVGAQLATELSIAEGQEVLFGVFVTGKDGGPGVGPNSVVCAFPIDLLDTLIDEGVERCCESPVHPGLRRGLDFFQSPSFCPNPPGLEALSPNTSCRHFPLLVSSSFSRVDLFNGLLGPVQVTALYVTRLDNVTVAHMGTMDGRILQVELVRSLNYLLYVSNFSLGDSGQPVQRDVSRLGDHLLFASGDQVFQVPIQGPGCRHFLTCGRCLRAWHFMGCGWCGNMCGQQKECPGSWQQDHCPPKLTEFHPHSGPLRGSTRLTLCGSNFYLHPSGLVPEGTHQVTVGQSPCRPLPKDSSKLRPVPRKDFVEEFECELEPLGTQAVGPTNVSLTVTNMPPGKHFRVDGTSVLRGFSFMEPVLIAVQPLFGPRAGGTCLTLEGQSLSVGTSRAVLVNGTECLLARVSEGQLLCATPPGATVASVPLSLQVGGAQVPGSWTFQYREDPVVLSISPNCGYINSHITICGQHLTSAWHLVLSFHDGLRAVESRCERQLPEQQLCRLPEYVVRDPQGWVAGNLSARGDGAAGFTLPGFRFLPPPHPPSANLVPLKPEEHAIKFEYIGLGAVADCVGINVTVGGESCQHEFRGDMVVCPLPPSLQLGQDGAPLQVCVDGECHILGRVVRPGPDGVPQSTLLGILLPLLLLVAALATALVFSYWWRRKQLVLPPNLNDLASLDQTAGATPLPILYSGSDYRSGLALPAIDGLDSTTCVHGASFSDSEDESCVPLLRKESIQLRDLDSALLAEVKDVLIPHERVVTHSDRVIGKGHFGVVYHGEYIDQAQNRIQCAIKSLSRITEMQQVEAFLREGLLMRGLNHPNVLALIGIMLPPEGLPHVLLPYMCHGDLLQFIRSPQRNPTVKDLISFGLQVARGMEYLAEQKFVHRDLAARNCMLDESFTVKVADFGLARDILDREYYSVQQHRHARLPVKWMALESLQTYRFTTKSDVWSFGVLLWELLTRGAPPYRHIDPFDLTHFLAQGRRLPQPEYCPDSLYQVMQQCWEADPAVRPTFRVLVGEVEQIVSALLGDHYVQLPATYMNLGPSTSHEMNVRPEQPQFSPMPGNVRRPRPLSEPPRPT
T1 sequence (Q9H3Y6 whole entry): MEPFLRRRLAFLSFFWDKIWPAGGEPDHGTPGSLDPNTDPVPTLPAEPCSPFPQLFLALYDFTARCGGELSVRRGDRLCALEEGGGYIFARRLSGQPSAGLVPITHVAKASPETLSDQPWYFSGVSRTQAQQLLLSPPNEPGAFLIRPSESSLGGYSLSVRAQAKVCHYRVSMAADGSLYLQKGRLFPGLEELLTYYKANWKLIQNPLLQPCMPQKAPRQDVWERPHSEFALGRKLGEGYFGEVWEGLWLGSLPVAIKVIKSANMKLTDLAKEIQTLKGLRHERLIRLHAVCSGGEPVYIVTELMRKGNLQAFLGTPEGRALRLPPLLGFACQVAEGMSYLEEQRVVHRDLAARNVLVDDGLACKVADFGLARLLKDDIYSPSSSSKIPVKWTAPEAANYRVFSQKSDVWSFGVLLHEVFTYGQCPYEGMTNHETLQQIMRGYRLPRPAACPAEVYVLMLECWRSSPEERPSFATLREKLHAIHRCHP

With `CNc1c(-c2cnn([C@H]3CCN(C(C)=O)C[C@@H]3F)c2)cnc2[nH]cc(Cl)c12` [Compound 77, 1-((3S,4S)-4-(4-(3-chloro-4-(methylamino)-1H-pyrrolo[2,3-b]pyridin-5-yl)-1H-pyrazol-1-yl)-3-fluoropiperidin-1-yl)ethan-1-one], the remaining binding at 1 µM on SRMS came out at 90%; at NLK, 95%; at MST1R it was 100%; at SRC, 99%; on NEK1, 96%; on DCAMKL1, 79%.
In the case of `CNc1c(-c2ccc(C(=O)N3CCC(N4CCOCC4)CC3)cc2)cnc2[nH]cc(Cl)c12` [Compound 96, (4-(3-chloro-4-(methylamino)-1H-pyrrolo[2,3-b]pyridin-5-yl)phenyl)(4-morpholinopiperidin-1-yl)methanone], the remaining binding at 1 µM on SRMS is 100%; on NLK, 100%; at MST1R, 88%; on SRC it was 100%; at NEK1, 100%; at DCAMKL1, 77%.
Regarding `O=C(c1ccc(-c2cnc3[nH]cc(Cl)c3c2NC2CCCC2)cc1)N1CCC(N2CCOCC2)CC1` [Compound 101, (4-(3-chloro-4-(cyclopentylamino)-1H-pyrrolo[2,3-b]pyridin-5-yl)phenyl)(4-morpholinopiperidin-1-yl)methanone], the remaining binding at 1 µM came out at 72% on SRMS; 88% on NLK; 77% at MST1R; 100% at SRC; 100% at NEK1; 90% at DCAMKL1.
